Measurements as given in patent publication US9890138B2, “Diaminopyrimidine derivatives and processes for the preparation thereof” (YUHAN CORPORATION, priority 2011, dated 2018).
Structures can show the parent of a compound that is named as a salt.

Biological target: T1, human 5-HT4(a) (Homo sapiens, UniProt Q13639)
T1 construct: host or cells: GeneBlAzer HTR4-CRE-bla CHO-K1 cells
Assay: Evaluation of agonistic activity in CHO-K1 cells expressing human 5-HT4(a) (GeneBlAzer HTR4-CRE-bla CHO-K1, beta-lactamase reporter)
Type: cell-based
Conditions: CHO-K1 cells stably expressing human 5-HT4(a)
Procedure, shortened: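 GeneBlAzer HTR4-CRE-bla CHO-K1 cells, 10^4/well overnight, exposed 5 h to compounds at 8 concentrations in medium with 1% DMSO in the added solution. β-lactamase substrate 2 h in dark; 410 nm excitation, 465/535 nm emission ratio; EC50 by non-linear regression.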

T1 sequence (Q13639 1-387 isoform Q13639-2): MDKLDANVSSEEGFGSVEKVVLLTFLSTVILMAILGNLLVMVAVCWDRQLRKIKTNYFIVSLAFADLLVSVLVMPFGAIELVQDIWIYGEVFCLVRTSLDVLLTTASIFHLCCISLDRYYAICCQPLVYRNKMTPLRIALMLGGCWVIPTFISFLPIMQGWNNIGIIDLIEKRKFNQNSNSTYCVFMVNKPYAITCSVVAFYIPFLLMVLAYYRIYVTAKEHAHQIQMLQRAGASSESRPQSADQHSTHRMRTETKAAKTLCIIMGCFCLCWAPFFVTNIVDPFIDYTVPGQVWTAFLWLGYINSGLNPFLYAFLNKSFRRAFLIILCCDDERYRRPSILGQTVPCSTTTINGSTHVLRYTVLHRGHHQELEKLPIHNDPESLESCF

Molecule | EC50
CCCc1cc(N2CC[C@H](NC3CCC3)C2)nc(Nc2cccc(C#N)c2)n1 [Example 142, (S)-3-{4-[3-(cyclobutylamino)pyrrolidin-1-yl]-6-propylpyrimidin-2-ylamino}benzonitrile] | 0.01 nM
CCCc1cc(N2CC[C@H](NC3CCNCC3)C2)nc(Nc2cccc(C#N)c2)n1 [Example 221, (S)-3-{4-[3-(piperidin-4-ylamino)pyrrolidin-1-yl]-6-propylpyrimidin-2-ylamino}benzonitrile] | 0.149 nM
CCCc1cc(N2CCC[C@H]2COC)nc(Nc2ccc(F)c([N+](=O)[O-])c2)n1 [Example 31, (S)-N-(4-fluoro-3-nitrophenyl)-4-[2-(methoxymethyl)pyrrolidin-1-yl]-6-propylpyrimidin-2-amine] | 0.13 nM
CCCc1cc(N2CCC[C@H]2COC)nc(Nc2ccc(C)c([N+](=O)[O-])c2)n1 [Example 40, (S)-4-[2-(methoxymethyl)pyrrolidin-1-yl]-N-(4-methyl-3-nitrophenyl)-6-propylpyrimidin-2-amine] | 0.03 nM
(S)-2-{1-[2-(indolin-6-ylamino)-6-propylpyrimidin-4-yl]pyrrolidin-2-yl}methanol [Example 217] | 0.23 nM
CCCc1cc(N2CCC[C@H]2C)nc(Nc2cccc(C(F)(F)F)c2)n1 [Example 316] | 0.21 nM
CCCc1cc(N2CC[C@H](NC(=O)CCc3ccccc3)C2)nc(Nc2cccc(C#N)c2)n1 [Example 151, (S)-N-{1-[2-(3-cyanophenylamino)-6-propylpyrimidin-4-yl]pyrrolidin-3-yl}-3-phenylpropanamide] | 0.334 nM
CCCc1cc(N2CCC(NC(C)=O)C2)nc(Nc2ccc3c(C)cc(=O)oc3c2)n1 (stereo not drawn) [Example 309] | 0.076 nM

Results, then the molecule that gave them:

EC50 | Molecule
0.039 nM | CCCc1cc(N2CCC(NC(C)=O)C2)nc(Nc2ccc(F)c([N+](=O)[O-])c2)n1 (stereo not drawn) [Example 296]
0.052 nM | CCCCc1cc(N2CC[C@H](NC)C2)nc(Nc2cccc(C#N)c2)n1 [Example 226]
0.0087 nM | CCCc1cc(N2CC[C@H](NC)C2)nc(Nc2ccc(F)c(C#N)c2)n1 [Example 180]
0.0012 nM | CCCCc1cc(N2CC[C@H](N)C2)nc(Nc2ccc(C)c(C#N)c2)n1 [Example 234, (S)-5-[4-(3-aminopyrrolidin-1-yl)-6-butylpyrimidin-2-ylamino]-2-methylbenzonitrile dihydrochloride]
0.02 nM | CCCc1cc(N2CC[C@H](NCC)C2)nc(Nc2ccc(N)c([N+](=O)[O-])c2)n1 [Example 177]
0.007 nM | CCCc1cc(N2CC[C@H](N)C2)nc(Nc2ccc(N)c(C#N)c2)n1 [Example 355]
0.014 nM | CCCCc1cc(N2CC[C@H](NC(C)=O)C2)nc(Nc2ccc(C)c(C#N)c2)n1 [Example 228, (S)—N-{1-[6-butyl-2-(3-cyano-4-methylphenylamino)pyrimidin-4-yl]pyrrolidin-3-yl}acetamide]
0.048 nM | CCCc1cc(N2CC[C@H](NCc3ccccc3)C2)nc(Nc2cccc(C#N)c2)n1 [Example 87, (S)-3-{4-[3-(benzylamino)pyrrolidin-1-yl]-6-propylpyrimidin-2-ylamino}benzonitrile]
0.0015 nM | CCCc1cc(N2CC[C@H](NCC)C2)nc(Nc2ccc(N)c(C#N)c2)n1 [Example 489]
0.003 nM | CCCCc1cc(N2CC[C@H](NC)C2)nc(Nc2cc(N)cc(C#N)c2)n1 [Example 451]
